The values below come from patent US20180290977A1, “KDM4 INHIBITORS” (Albert-Ludwigs-University Freiburg, priority 2017, published 2018).

Assay type in all cases: cell-based, human
Test [1] relates to BCSC1 cells. The test can be described thus: BCSC cell proliferation / dose-response assay. Conditions: erlotinib, 10 μM (FIG. 7B).
Protocol: (§1) For dose-response assays, cells were detached by ACCUTASE solution dissociation and counted. […] After incubation at 37° C. for 30 min to solidify the [sequence], 1×10^3 single cells were seeded per 384-well in 40 μL medium. […] Following 96 hr of incubation under normal culture conditions, the cells were washed once with PBS and fixed with ice-cold methanol for at least 15 min at −20° C. After another washing step with PBS, cells were stained with DAPI (Sigma-Aldrich) and read-out with the ScanR microscope-based imaging platform (Olympus Deutschland GmbH, Hamburg, Del.). Total DAPI cell nuclear counts per well were determined.
(§2) For the cell proliferation assays, BCSCs tagged with a stable NLS-mCherry fluorescent signal (nuclear localization peptide) were used for this assay. Cells were detached by ACCUTASE dissociation and counted. Each well of a black 384-well plate (Greiner) was coated with 10 μL of MSC medium containing 2% [sequence]. After incubation at 37° C. for 30 min to solidify the [sequence], 1×10^3 single cells/well were seeded in 40 μL medium. […] Afterwards, the first readout with the ScanR microscope-based imaging platform (Olympus) was started, assessing mCherry-fluorescent cell nuclei in nine sectors of each well under 60% humidity and 5% CO2. This readout was repeated every 24 hr for 7 days. […]
Test [2] relates to BCSC2 cells. In words: BCSC cell proliferation / dose-response assay. Conditions: erlotinib, 10 μM (FIG. 7C).
Protocol: as §1, §2
The subject of test [3] is BCSC1 cells. In words: Anchorage-independent sphere formation assay (methylcellulose). Conditions: erlotinib 1 μM or 10 μM (FIG. 7F).
Protocol: (§3) For the cancer stem-cell spheroid assay in methylcellulose, cells were detached by ACCUTASE solution and counted. 3×10^3 single BCSC1 and 1×10^3 single BCSC2 cells were seeded into individual wells of 96-well ultra-low attachment plates (CORNING, #3474) in serum-free MSC medium containing 1% methylcellulose (Sigma-Aldrich, #M0512).
In test [4] the test system is BCSC2 cells. Described as above. Conditions: erlotinib 1 μM or 10 μM (FIG. 7G).
Protocol: as §3

With `C#Cc1cccc(Nc2ncnc3cc(OCCOC)c(OCCOC)cc23)c1` [erlotinib], the “proliferation of BCSC1 cells” value with BCSC1 cells [1] is recorded as “blocked”. In addition, the “proliferation of BCSC2 cells” value in the test on BCSC2 cells [2] is recorded as “blocked”. The 3D-colony forming capacity result in the test with BCSC1 cells [3] and with BCSC2 cells [4] was “dramatically reduced” throughout.
